{
  "source": "patent US11856970B2",
  "about": "“Bacillus subtilis for animal feed” (CHR. HANSEN A/S, priority 2018, dated 2024)",
  "system": "E. coli",
  "assay": "Agar well diffusion, screening for inhibition of E. coli",
  "format": "cell-based, Escherichia coli",
  "settings": "E. coli O147:K89 F4 H19",
  "protocol": "The seven pathogenic E. coli and Salmonella spp. strains were each suspended in MRD until McFarland 0.5 was obtained and 10 μL of each pathogen suspension was diluted in approximately 35 ml melted LB agar (max. 42° C.). The inoculated agar was poured into Omni Tray Single-well plates, Immuno TSP plates were attached. After drying the immune TSP plates were removed and the wells were inoculated with 5 μL overnight culture (triplicates) of Bacillus test strains. The plates were incubated aerobically at 30° C. for 48 hours. For the E. coli plates, two replicate plates were used (n=2); for the 10 Salmonella spp. plates, one replicate plate was used (n=1).\nThe following positioning of the Bacillus subtilis strains on the plates containing the pathogens was used:\nThe concentration of E. coli and Salmonella spp. in the inoculated agar was estimated to be 2.9×10^4 CFU/ml.",
  "data": [
    {"compound": "O=C(O)c1cn(C2CC2)c2cc(N3CCNCC3)c(F)cc2c1=O", "note": "[ciprofloxacin]", "values": [
      {"measurement": "inhibition zones (FIG. 2, in words)", "value": "Inhibition is also seen"}
    ]}
  ]
}
